Data published in article PMC10747975, “Synthesis, Antimalarial, Antileishmanial, and Cytotoxicity Activities and Preliminary In Silico ADMET Studies of 2-(7-Chloroquinolin-4-ylamino)ethyl Benzoate Derivatives” (Pharmaceuticals, 2023).
Several values for one entry are separate records, joined by “and”; a condition that tells them apart may be missing. Equal values may be shown once. Entries after “also recorded” stand apart in the source; their conditions may differ. Read-outs that look alike come from different tables or passages of the source.

Tests used:
β-hematin formation = assay: Inhibition of β-hematin formation; assay type: biochemical; conditions: n = 3, read-out: IC50: Half maximal inhibitory concentration (βHF)
Description: The β-hematin (β-H) formation assay was performed as described previously. In 96-well microplates, hemin chloride solution (50 μL, 4 mM) was dissolved in dimethyl sulfoxide (DMSO) (5 mg mL^−1). We dissolved the compounds in DMSO and added different concentrations (100–5 mM) to the test wells (50 μL). As controls, 50 μL of water and 50 μL of DMSO were used. Experiments were conducted in triplicate. In order to generate β-H, acetate buffer (100 μL, 0.2 M, pH 4.4) was used. After 48 h at 37 °C, the plates were centrifuged (4000 RPM for 15 min, IEC-CENTRA, MP4R) (International Equipment Company, MA, USA). After discarding the supernatants, the pellet was washed twice with DMSO (200 μL) and dissolved in NaOH (200 μL, 0.2 N). […] The outcomes are expressed as percentages of inhibition of β-H formation.

[1] = tested on: mitochondrial electrochemical membrane potential of Leishmania mexicana promastigotes; assay: Mitochondrial membrane potential of L. mexicana (rhodamine 123); assay type: cell-based; conditions: compounds 10 μM; b32 compares 4b, 4e with 4c
Description: The effect of different compounds on the mitochondrial membrane potential of L. mexicana promastigotes was evaluated using rhodamine 123, a fluorescent dye distributed inside mitochondria according to the electrochemical membrane potential, as reported previously. Briefly, 10^8 parasites were obtained by centrifugation at 600× g for 2 min and washed in phosphate-buffered saline solution (PBS) plus 1% glucose. The pellet was resuspended in the same buffer but in the presence of 20 µM rhodamine 123 for 45 min at 29 °C in the dark with mild agitation. Then, parasites were washed twice, resuspended in the same buffer, and transferred into a stirred cuvette. Measurements (excitation wavelength [λex], 488 nm; emission wavelength [λem], 530 nm) were made in a Hitachi 7000 spectrofluorometer at 29 °C (Hitachi High-Tech Corporation, Tokyo, Japan). FCCP (2 µM) was used as a positive control.

[2] = tested on: acidocalcisomes of Leishmania mexicana; assay: Acidocalcisome function (acridine orange accumulation); assay type: cell-based; conditions: results not shown
Description: Considering this issue, we investigate another possible action of these compounds in these parasites. The acidocalcisomes are another relevant organelle characteristic of these trypanosomatids directly involved in bioenergetics and intracellular Ca^2+ regulation. These are acidic vacuoles rich in calcium and phosphates, engaged in the production and storage of pyrophosphates, and alternative energetic currency in addition to ATP, well known in trypanosomatids. For this reason, we also tested the possible effect of the compounds 4b, 4c, and 4e on acidocalcisomes, using acridine orange accumulation as a well-recognized method. This compound is released to the medium after parasite alkalization, denoting the loss of this organelle function. […] In this context, it is interesting to mention that in trypanosomatids, the disruption of intracellular Ca^2+ homeostasis drives parasite death, thus proposing that alteration of this function could be a rational therapeutic target.

[3] = tested on: Leishmania mexicana promastigotes; assay: L. mexicana promastigote growth inhibition; assay type: cell-based; conditions: growth/viability, Bel 21 strain
Description: The growth of L. mexicana was carried out as previously reported. L. mexicana (Bel 21 strain) promastigotes were cultured in liver infusion-tryptose (LIT) medium supplemented with 10% foetal bovine serum using continuous agitation at 29 °C, as reported previously. A growth curve was performed to evaluate the susceptibility of parasites to the different compounds at different concentrations. Parasites were counted daily using a Neubauer chamber. […] The final concentration of sterile DMSO in the parasite culture was 0.1%, not affecting the viability. […] FCCP (2 µM) was used as a positive control.

[4] = In vitro toxicity on mouse red blood cells (haemolysis); assay type: cell-based; conditions: mouse RBCs, 37 °C
Description: To evaluate the in vitro toxicological effects of the compounds, we measured the haemoglobin released into the supernatant fraction of lysed red blood cells (RBCs). […] To obtain 100% RBCs, mouse blood was spun down at 800 g for 10 min and washed thrice with saline solution. […] RBCs were lysed in 1% saponin solution and were used as a positive control and a PBS solution as a negative control. The percentage of haemolysis was calculated using the formula: % Haemolysis = [(AT − AN)/(AP − AN)] × 100, where AT = mean absorbance of the test compound; AN = mean absorbance of the negative control; AP = mean absorbance of the positive control.

Plasmodium berghei ANKA = assay: Four-day suppressive test in P. berghei-infected mice; assay type: in vivo; conditions: for Survival: number of mice that survived until Day 30 post-infection/total number of mice in the group / %P: percent parasitaemia (± SEM): 25 mg/kg ip; for Sd: survival days (± SEM): P. berghei-infected BALB/c mice, 25 mg/kg ip once daily for four days; for Sd: survival days (± SEM) / %P: percent parasitaemia (± SEM): n = 6; for %P: percent parasitaemia (± SEM): fourth day post-infection
Description: The compounds 4c and 4e were evaluated in mice infected with P. berghei ANKA, a strain of murine malaria susceptible to CQ(DPh). The compounds 4c and 4e were assessed on the fourth day post-infection by evaluating their ability to increase mouse survival and reduce parasitaemia in vivo compared to untreated controls. The compounds 4c, 4e (25 mg/kg), or CQ (25 mg/kg) were administered intraperitoneally (ip) once daily in mice following previously reported protocols. The Institute of Immunology Bioethical Committee approved the study (AS 161019). We followed the guidelines for Laboratory Animal Research of the National Research Council (ILAR).
For the experiments, male BALB/c mice, 18–22 g, were fed a commercial pellet diet under controlled conditions approved by the Institute of Immunology’s Ethics Committee. The animals were infected with the rodent malaria ANKA strain of Plasmodium berghei; 1 × 10^6 infected erythrocytes diluted in phosphate-buffered saline (PBS; 10 mM, pH 7.4, 0.1 mL) were injected […] into mice. Microscopic examination of Giemsa-stained smears was used to monitor parasitaemia.
Plasmodium berghei-infected red blood cells were injected into the caudal vein of BALB/c mice (18–23 g) (n = 6). Within two hours of infection, the active compounds from the in vitro test began to be administered (inhibition of β-H formation). Following dissolution in DMSO (0.1 M), the compounds were diluted with 2% saline-Tween 20 solution. The compounds (dose 25 mg kg^−1) were administered ip for four days. Giemsa-stained smears were examined on the fourth day to determine the parasite load. As a positive control, CQ (25 mg kg^−1) in DMSO (0.1 M) diluted with 2% saline-Tween 20 solution was used. A control group of mice infected with P. berghei incubated with saline solution was used to determine survival times. The results are expressed as a percentage of parasitaemia, and the survival curve was constructed based on the number of days of survival after treatment with the compound over that of mice infected without treatment.

[5] = tested on: Leishmania mexicana promastigotes; parameters: method as in PMID 27458218; conditions: reference compound; cited from earlier work
[6] = 2% suspension of mouse red blood cells

Structure (SMILES): COc1ccccc1C(=O)OCCNc1ccnc2cc(Cl)ccc12 [4a, 2-(7-Chloroquinolin-4-ylamino)ethyl-2-methoxybenzoate]
- IC50 (β-hematin formation): 4.16 ± 0.61 µM

Structure (SMILES): COc1ccc(C(=O)OCCNc2ccnc3cc(Cl)ccc23)cc1 [4b, 2-(7-Chloroquinolin-4-ylamino)ethyl-4-methoxybenzoate]
- IC50 (β-hematin formation): 3.09 ± 0.27 µM
- Effect on mitochondrial electrochemical membrane potential (rhodamine 123 fluorescence release) [1]: rapid increase in the fluorescence; also recorded: significantly higher
- Effect on acidocalcisome functionality [2]: none of these compounds showed any effect
- IC50 ([3]; Leishmania mexicana): < 10 µM
- IC50 [3]: 8.09 ± 1.47 µM

Structure (SMILES): COc1cccc(C(=O)OCCNc2ccnc3cc(Cl)ccc23)c1OC [4c, 2-(7-Chloroquinolin-4-ylamino)ethyl-2,3-dimethoxybenzoate]
- IC50 (β-hematin formation): 2.1 ± 0.48 µM
- hemolysis at 45 min, 1 mM [4, 6]: 4.73 ± 0.12%
- Survival: number of mice that survived until Day 30 post-infection/total number of mice in the group (Plasmodium berghei ANKA): 0/6
- Sd: survival days (± SEM) (Plasmodium berghei ANKA; 25 mg/kg): 16.7 ± 2.16 days and 16.71 ± 2.16 days
- %P: percent parasitaemia (± SEM) (Plasmodium berghei ANKA): 9.86 ± 1.55 %
- Effect on mitochondrial electrochemical membrane potential (rhodamine 123 fluorescence release) [1]: rapid increase in the fluorescence; also recorded: lower
- Effect on acidocalcisome functionality [2]: none of these compounds showed any effect
- IC50 ([3]; Leishmania mexicana): < 10 µM
- IC50 [3]: 8.46 ± 1.86 µM

Structure (SMILES): COc1ccc(C(=O)OCCNc2ccnc3cc(Cl)ccc23)c(OC)c1 [4d, 2-(7-Chloroquinolin-4-ylamino)ethyl-2,4-dimethoxybenzoate]
- IC50 (β-hematin formation): 8.59 ± 0.01 µM

Structure (SMILES): COc1ccc(OC)c(C(=O)OCCNc2ccnc3cc(Cl)ccc23)c1 [4e, 2-(7-Chloroquinolin-4-ylamino)ethyl-2,5-dimethoxybenzoate]
- IC50 (β-hematin formation): 1.81 ± 0.83 µM
- hemolysis at 45 min, 1 mM [4, 6]: 4.17 ± 0.21%
- Survival: number of mice that survived until Day 30 post-infection/total number of mice in the group (Plasmodium berghei ANKA): 0/6
- Sd: survival days (± SEM) (Plasmodium berghei ANKA; 25 mg/kg): 14.4 ± 1.20 days and 14.43 ± 1.20 days
- %P: percent parasitaemia (± SEM) (Plasmodium berghei ANKA): 12.05 ± 2.36 %
- Effect on mitochondrial electrochemical membrane potential (rhodamine 123 fluorescence release) [1]: rapid increase in the fluorescence; also recorded: significantly higher
- Effect on acidocalcisome functionality [2]: none of these compounds showed any effect
- IC50 ([3]; Leishmania mexicana): < 10 µM
- IC50 [3]: 5.67 ± 2.15 µM

Structure (SMILES): COc1cc(OC)c(C(=O)OCCNc2ccnc3cc(Cl)ccc23)cc1OC [4f, 2-(7-Chloroquinolin-4-ylamino)ethyl-2,4,5-trimethoxybenzoate]
- IC50 (β-hematin formation): 3.29 ± 0.23 µM

Structure (SMILES): COc1cc(C(=O)OCCNc2ccnc3cc(Cl)ccc23)cc(OC)c1OC [4g, 2-(7-Chloroquinolin-4-ylamino)ethyl-3,4,5-trimethoxybenzoate]
- IC50 (β-hematin formation): 2.98 ± 0.17 µM

Structure (SMILES): O=C(OCCNc1ccnc2cc(Cl)ccc12)c1cccc(Cl)c1 [4h, 2-(7-Chloroquinolin-4-ylamino)ethyl-3-chlorobenzoate]
- IC50 (β-hematin formation): 6.85 ± 0.94 µM

Structure (SMILES): O=C(OCCNc1ccnc2cc(Cl)ccc12)c1ccccc1F [4i, 2-(7-Chloroquinolin-4-ylamino)ethyl-2-fluorobenzoate]
- IC50 (β-hematin formation): 4.01 ± 0.09 µM

Structure (SMILES): Cc1cc(C)cc(C(=O)OCCNc2ccnc3cc(Cl)ccc23)c1 [4j, 2-(7-Chloroquinolin-4-ylamino)ethyl-3,5-dimethylbenzoate]
- IC50 (β-hematin formation): 3.16 ± 0.38 µM

Structure (SMILES): Cc1ccc([N+](=O)[O-])c(C(=O)OCCNc2ccnc3cc(Cl)ccc23)c1 [4k, 2-(7-Chloroquinolin-4-ylamino)ethyl-5-methyl-2-nitrobenzoate]
- IC50 (β-hematin formation): 4.27 ± 0.67 µM

Structure (SMILES): CC(C)(C)c1ccc(C(=O)OCCNc2ccnc3cc(Cl)ccc23)cc1 [4l, 2-(7-Chloroquinolin-4-ylamino)ethyl-4-tert-butylbenzoate]
- IC50 (β-hematin formation): 3.57 ± 0.22 µM

Structure (SMILES): O=C(OCCNc1ccnc2cc(Cl)ccc12)c1ccc(C(F)(F)F)cc1 [4m, 2-(7-Chloroquinolin-4-ylamino)ethyl-4-(trifluoromethyl)benzoate]
- IC50 (β-hematin formation): 3.24 ± 0.15 µM

Structure (SMILES): CCN(CC)CCCC(C)Nc1ccnc2cc(Cl)ccc12 (stereo not drawn) [CQ(DPh), chloroquine bisphosphate, reference compound]
- Sd: survival days (± SEM) (Plasmodium berghei ANKA): 30 days
- %P: percent parasitaemia (± SEM) (Plasmodium berghei ANKA): 0.28 ± 0.15%

Structure (SMILES): CCN(CC)CCCC(C)Nc1ccnc2cc(Cl)ccc12 (stereo not drawn) [CQ, chloroquine, reference compound]
- hemolysis at 45 min, 1 mM [4]: 2.07 ± 0.17%
- Survival: number of mice that survived until Day 30 post-infection/total number of mice in the group (Plasmodium berghei ANKA): 6/6

Structure (SMILES): CC(C)=CCC/C(C)=C/CNCCNC1C2CC3CC(C2)CC1C3 (stereo not drawn) [SQ109]
- IC50 [5]: 0.53 ± 0.06 µM

Structure (SMILES): OCCNc1ccnc2cc(Cl)ccc12 [compound 2, 2-(7-Chloroquinolin-4-ylamino)ethanol]
- IC50 (β-hematin formation): 5.06 ± 0.31 µM
